The subject of assay [1] is primary cultured neonatal microglia. As to the kind of experiment: LPS induced NO release, Griess assay, laboratory scaled setup.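 As to active: compounds at or above the IC50 cutoff were called inactive.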 Format: cell-based, mouse. The conditions noted are these: inhibitors of NO production, murine primary cultured neonatal microglia. The procedure: Primary cultured neonatal microglia. For preparation of cultured neonatal microglia, P0-P3 mice were used. 10 brains were extracted, meninges and cerebellum were removed and put on ice with Hank's balanced salt solution (HBSS). The dissected brains were washed 3 times before adding 400 μL trypsin (0.1 mg/L) and DNAse (5 μg/L) in phosphate buffered saline (PBS). After 2 min of incubation with this solution, the reaction was blocked by adding plain medium. After removal of the medium, 1 mg DNAse was added and the cells were mechanically dissociated, with a Pasteur pipette followed by a glass pipette. The cells were centrifuged for 10 min at 129 g at 4° C. The supernatant was discarded. The pellet was resuspended in plain medium and plated (2.5 brains/flask) in Poly-L-Lysine coated flasks. The cells were washed after 2 days with PBS and incubated for another 7 days in plain medium. Afterwards the medium was replaced by plain medium with 33% L929 conditioned medium. After 2 days, cells were harvested by shaking them for 30 min at 150 rpm. The supernatant was centrifuged for 10 min at 129 g at 4° C. The cells were plated into a 96 well plate (100 000 cells/well, 200 μL medium per well). This procedure could be repeated 2 times with a 2 day interval.
Griess assay. Cells were seeded according to the protocols described above, after compounds and stimuli were added, 100 μl of supernatant was transferred into a new 96 well plate and 100 μl freshly mixed Griess reagent were added. Griess reagent was composed of reagent A (100 mg Naphthylethylene in 50 ml aqua dest.) and reagent B (1 g Sulfanilamide, […] H3PO4 (85%) in 44 mL aqua dest.) mixed 1:1. The solution was carefully mixed and the absorbance was determined in a microplate reader at a wavelength of 550 nm.
Dissolved sodium nitrite in plain medium served as a standard. Total amount of nitrite was calculated by a linear regression of the standard curve.
The activity of the compounds listed in column 1 of Table 1 as inhibitors of NO production was compared in murine primary cultured neonatal microglia as described above.

Assay [2] relates to nNOS. Briefly: NOS enzyme activity assay (Eurofins), nNOS. It is filed as biochemical. Conditions: C1: 1 nM and 1 μM; 30 min reaction. The procedure:
(§1) In mammalians NO is produced by the three isoforms of NOS: iNOS, eNOS, and nNOS. To evaluate the direct influence of cl on the different isoforms of NOS, an enzyme activity assay was conducted by Eurofins. C1 was mixed with the enzyme buffer, which included co-factors and substrates and by adding the enzyme the reaction was initiated. After 30 min the reaction was stopped, and NO concentration was measured. The results are normalised to positive control performed without any additional compounds and are presented as percentage in inhibition. […] To test the compounds effect on iNOS a concentration range from […] 5 μM were applied ([…], 1, 10, 100 nM, 1, and 5 μM), and for testing eNOS and nNOS 1 nM and 1 μM were applied.

The subject of assay [3] is iNOS. As to the kind of experiment: NOS enzyme activity assay (Eurofins), iNOS. It is filed as biochemical. Conditions: C1: 1 μM up to 5 μM as printed; 30 min reaction. The method, then:
as §1

Broadly, the IC50 is the concentration at which inhibition is half-maximal. Regarding `COc1ccc(NC(=O)[C@@H](NC(=O)[C@@H]2C[C@@H](O)CN2C(=O)CCC2CCCCC2)c2ccc(OC)cc2)cc1` [Compound 53, (2S,4R)-1-(3-cyclohexylpropanoyl)-4-hydroxy-N—((S)-1-(4-methoxyphenyl)-2-((4-methoxyphenyl)amino)-2-oxoethyl)pyrrolidine-2-carboxamide], in assay [1] (Mus musculus, Microglia, read-out: activity class (IC50)), the IC50 was less than 1000 nM. The active entry in assay [1] is reported as “YES”.

With `CSC(=N)N` [S-Methylisothiourea, reference compound], the “enzymatic activity of nNOS” value in assay [2] was “reduce the enzyme activity as predicted”.

On to `CC(=N)NCc1cccc(CN)c1` [W1400, reference compound], for which the “enzymatic activity of iNOS” value in assay [3] is “reduce the enzyme activity as predicted”.
